Data published in patent US4087528A, “2,4-Diamino-5-benzylpyrimidines” (Abbott Laboratories, priority 1976, dated 1978).
≈ marks a conversion by molar mass, not a printed value.

Assays:
[1] = test system: E. Coli 114 Sensitive; assay: Two-fold tube dilution test vs. trimethoprim-sensitive E. coli (Table 4); format: cell-based; conditions: Escherichia coli, minimal medium, 37° C., 18 hours, read-out: Minimum Inhibitory Concentration
Method: (§1) Compounds V - VIII were tested and compared with trimethoprim, as control, against two external strains, (Escherichia coli) a sensitive No. 114 and a No. 114 carrying a resistant (R) factor which mediates the synthesis of an altered dihydrofolate reductase; S. G. R. Amyes and J. T. Smith, Biochem. and Biophys., Res. Comm., 58, 412 (1974).
(§2) The method used was a two-fold tube dilution test in 5 ml. amounts of minimal medium. The inoculum was 0.1 ml. of a 1:1T dilution of a 24 hour broth culture. The test was incubated at 37° C. for 18 hours.

[2] = test system: Staphylococcus aureus 209P; assay: Tube dilution test, Mueller Hinton Medium (Table 3); format: cell-based; conditions: 18 h, read-out: Minimum Inhibitory Concentration
Method: (§3) Escherichia coli Juhl and Escherichia coli 3100. The method used was a two-fold tube dilution test in 5 ml. amounts of minimal medium. The inoculum was 0.1 ml. of a 1:1T dilution of a 24 hour broth culture. The test was incubated at 37° C. for 18 hours. A similar test was made on other strains with the compounds (V, VI, VII and VIII) in 5 ml. amounts of Mueller Hinton Medium.

[3] = test system: Staphylococcus aureus Smith; assay: as above; format: cell-based; conditions: 18 h, read-out: Minimum Inhibitory Concentration
Method: as §3

[4] = test system: Streptococcus pyogenes C203; assay: as above; format: cell-based; conditions: 18 h, read-out: Minimum Inhibitory Concentration
Method: as §3

[5] = test system: E. Coli (Resistant); assay: microbe, parasite or virus in culture; format: cell-based, Escherichia coli; conditions: for MIC: Escherichia coli, 18 h, read-out: Minimum Inhibitory Concentration
Method: as §1, §2

[6] = test system: Klebsiella pneumoniae 8045; assay: Two-fold tube dilution test, minimal medium (Table 2); format: cell-based; conditions: 37° C., 18 hours, read-out: Minimum Inhibitory Concentration
Method: (§4) The four compounds, i.e., compounds V, VI, VII, VIII, were tested against a series of strains including:
(§5) Escherichia coli Juhl and Escherichia coli 3100. The method used was a two-fold tube dilution test in 5 ml. amounts of minimal medium. The inoculum was 0.1 ml. of a 1:1T dilution of a 24 hour broth culture. The test was incubated at 37° C. for 18 hours.

[7] = test system: Salmonella typhimurium Ed 9; assay: as above; format: cell-based; conditions: Salmonella enterica, 37° C., 18 hours, read-out: Minimum Inhibitory Concentration
Method: as §4, §5

[8] = test system: Escherichia coli Juhl; assay: as above; format: cell-based; conditions: 37° C., 18 hours, read-out: Minimum Inhibitory Concentration
Method: as §4, §5

[9] = test system: Proteus mirabilis Finland #9; assay: as above; format: cell-based; conditions: 37° C., 18 hours, read-out: Minimum Inhibitory Concentration
Method: as §4, §5

[10] = test system: Escherichia coli 3100; assay: as above; format: cell-based; conditions: 37° C., 18 hours, read-out: Minimum Inhibitory Concentration
Method: as §4, §5

[11] = test system: Enterobacter aerogenes 13048; assay: as above; format: cell-based; conditions: Klebsiella aerogenes, 37° C., 18 hours, read-out: Minimum Inhibitory Concentration
Method: as §4, §5

[12] = test system: P. Mirabilis; assay: Acute Mouse Protection Test (Table 6); format: in vivo, Female, Swiss albino mice; conditions: approximate, combination with sulfamethoxazole, medicated 1 and 5 hours post-infection, 7 days
Method: (§6) The test bacteria were transferred to Brain Heart Infusion Broth and incubated at 37° C. for 18 hours. Log dilutions of the organism were made in BHI broth and mixed with 3% hog gastric mucin.
(§7) Female, Swiss albino mice, 18 - 20 grams, were injected intraperitoneally with 0.75 ml. of inoculum.
(§8) The optimum dilution was one in which each mouse received 10 - 10 LD50 's of the infecting organism.
(§9) The test compound was diluted in such a way that there were 5 drug levels (each level is half as concentrated as the one above) in each test. Ten infected mice were treated with each level of drug. The mice were medicated 1 and 5 hours post-infection.

[13] = test system: E. Coli (Juhl); assay: Acute Mouse Protection Test (Table 6); format: in vivo, Female, Swiss albino mice; conditions: approximate, combination with sulfamethoxazole, medicated 1 and 5 hours post-infection, 7 days
Method: as §6, §7, §8, §9

[14] = test system: P. Vulgaris; assay: Acute Mouse Protection Test (Table 6); format: in vivo, Female, Swiss albino mice; conditions: approximate, combination with sulfamethoxazole, medicated 1 and 5 hours post-infection, 7 days
Method: as §6, §7, §8, §9

[15] = test system: E. Coli (48); assay: Acute Mouse Protection Test (Table 6); format: in vivo, Female, Swiss albino mice; conditions: approximate, combination with sulfamethoxazole, medicated 1 and 5 hours post-infection, 7 days
Method: as §6, §7, §8, §9

[16] = test system: E. Coli 3100; assay: In vitro potentiation of sulfonamides, two-fold tube dilution test in BBL Nutrient broth (Table 5); format: cell-based, Escherichia Coli; conditions: MIC of sulfonamide alone vs in combination
Method: The potentiation properties of the compounds, i.e., compounds V - VIII in various combinations with sulfa compounds, i.e., sulfonamides (sulfamethoxazole, sulfadiazine, sulfamethazine and sulfamerazine) were tested. The method was a two-fold tube dilution test using BBL Nutrient broth in 5 ml. amounts. The inoculum was 0.1 ml. of a 10^-3 dilution 24 hour broth culture of Escherichia Coli 3100. The test was incubated at 37° C. for 18 hours. | *The potentiation effect shown is determined by measuring the minimum | inhibitory concentration (MIC) of the sulfonamide alone and in combinatio | with the compound at the indicated ratios.

[17] = Sulfadiazine, Compound/Sulfa Ratio 1:1
[18] = Sulfadiazine, Compound/Sulfa Ratio 1:5

Q: For `CCNc1c(Cl)cc(Cc2cnc(N)nc2N)cc1Cl` [VII, 2,4-Diamino-5-(3,5-dichloro-4-ethylaminobenzyl)pyrimidine], which MIC [1] is on record?
A: Its MIC is 3.1 µg/mL (≈ 9.93 µM).

Q: And the MIC [2]?
A: The MIC was 3.1 µg/mL (≈ 9.93 µM).

Q: And the MIC [3]?
A: The MIC was 6.2 µg/mL (≈ 19.9 µM).

Q: And the MIC [4]?
A: Its MIC is 12.5 µg/mL (≈ 40 µM).

Q: What about the MIC [5] of the same molecule?
A: The MIC was 200 µg/mL (≈ 641 µM).

Q: What about the MIC [6] of the same molecule?
A: The MIC was 12.5 µg/mL (≈ 40 µM).

Q: What about the MIC [7] of the same molecule?
A: The MIC was 12.5 µg/mL (≈ 40 µM).

Q: What about the MIC [8] of the same molecule?
A: Its MIC is 3.1 µg/mL (≈ 9.93 µM).

Q: And the MIC [9]?
A: The MIC was 50 µg/mL (≈ 160 µM).

Q: What about the MIC [10] of the same molecule?
A: The MIC was 6.2 µg/mL (≈ 19.9 µM).

Q: And the MIC [11]?
A: The MIC was 25 µg/mL (≈ 80.1 µM).

Q: What about the “CD50, Cmpd. part of the Sulfa/Cmpd. combination” value [12] of the same molecule?
A: The value was 30 Mg./Kg.

Q: And the “CD50, Cmpd. part of the Sulfa/Cmpd. combination” value [13]?
A: The value was 35 Mg./Kg.

Q: And the “CD50, Cmpd. part of the Sulfa/Cmpd. combination” value [14]?
A: Its value is 2 Mg./Kg.

Q: And the “CD50, Cmpd. part of the Sulfa/Cmpd. combination” value [15]?
A: The value was 2 Mg./Kg.

Q: What about the Potentiation [16, 17] of the same molecule?
A: Its Potentiation is 8.0 X.

Q: What about the Potentiation [16, 18] of the same molecule?
A: Its Potentiation is 6.2 X.

Q: What about the Potentiation ([16]; Sulfamerazine, Compound/Sulfa Ratio 1:1) of the same molecule?
A: Its Potentiation is 8.0 X.

Q: What about the Potentiation ([16]; Sulfamerazine, Compound/Sulfa Ratio 1:5) of the same molecule?
A: The Potentiation was 3.2 X.

Q: What about the Potentiation ([16]; Sulfamethazine, Compound/Sulfa Ratio 1:1) of the same molecule?
A: The Potentiation was 4.0 X.

Q: What about the Potentiation ([16]; Sulfamethazine, Compound/Sulfa Ratio 1:5) of the same molecule?
A: The Potentiation was 3.2 X.

Q: And the Potentiation ([16]; Sulfamethoxazole, Compound/Sulfa Ratio 1:1)?
A: The Potentiation was 4.0 X.

Q: And the Potentiation ([16]; Sulfamethoxazole, Compound/Sulfa Ratio 1:5)?
A: The Potentiation was 3.1 X.

Q: What does the source list for `Nc1ncc(Cc2cc(Cl)c(N)c(Cl)c2)c(N)n1` [V, 2,4-Diamino-5-(4-amino-3,5-dichlorobenzyl)pyrimidine]?
A: MIC [1]: 1.56 µg/mL (≈ 5.49 µM); MIC [2]: 6.2 µg/mL (≈ 21.8 µM); MIC [3]: 25 µg/mL (≈ 88 µM); MIC [4]: 6.2 µg/mL (≈ 21.8 µM); MIC [5]: 400 µg/mL (≈ 1410 µM); MIC [6]: 1.56 µg/mL (≈ 5.49 µM); MIC [7]: 3.1 µg/mL (≈ 10.9 µM); MIC [8]: 0.78 µg/mL (≈ 2.75 µM); MIC [9]: 25 µg/mL (≈ 88 µM); MIC [10]: 0.39 µg/mL (≈ 1.37 µM); MIC [11]: 1.56 µg/mL (≈ 5.49 µM); CD50, Cmpd. part of the Sulfa/Cmpd. combination [12]: 30 Mg./Kg.; CD50, Cmpd. part of the Sulfa/Cmpd. combination [13]: 45 Mg./Kg.; Potentiation [16, 17]: 31.0 X; Potentiation [16, 18]: 3.1 X

Q: How did the MIC [1] turn out when `CNc1c(Cl)cc(Cc2cnc(N)nc2N)cc1Cl` [VI, 2,4-Diamino-5-(3,5-dichloro-4-methylaminobenzyl)pyrimidine] was run?
A: Its MIC is 1.56 µg/mL (≈ 5.23 µM).

Q: What about the MIC [2] of the same molecule?
A: Its MIC is 3.1 µg/mL (≈ 10.4 µM).

Q: What about the MIC [3] of the same molecule?
A: Its MIC is 6.2 µg/mL (≈ 20.8 µM).

Q: What about the MIC [4] of the same molecule?
A: Its MIC is 6.2 µg/mL (≈ 20.8 µM).

Q: What about the MIC [5] of the same molecule?
A: The MIC was greater than 400 µg/mL.

Q: What about the MIC [6] of the same molecule?
A: Its MIC is 6.2 µg/mL (≈ 20.8 µM).

Q: And the MIC [7]?
A: Its MIC is 3.1 µg/mL (≈ 10.4 µM).

Q: And the MIC [8]?
A: Its MIC is 6.2 µg/mL (≈ 20.8 µM).

Q: And the MIC [9]?
A: Its MIC is 12.5 µg/mL (≈ 41.9 µM).

Q: And the MIC [10]?
A: Its MIC is 3.1 µg/mL (≈ 10.4 µM).

Q: What about the MIC [11] of the same molecule?
A: Its MIC is 3.1 µg/mL (≈ 10.4 µM).

Q: And the “CD50, Cmpd. part of the Sulfa/Cmpd. combination” value [12]?
A: Its value is 60 Mg./Kg.

Q: And the “CD50, Cmpd. part of the Sulfa/Cmpd. combination” value [13]?
A: The value was 30 Mg./Kg.

Q: And the “CD50, Cmpd. part of the Sulfa/Cmpd. combination” value [14]?
A: Its value is 2 Mg./Kg.

Q: And the “CD50, Cmpd. part of the Sulfa/Cmpd. combination” value [15]?
A: The value was 3 Mg./Kg.

Q: And the Potentiation [16, 17]?
A: The Potentiation was 15.9 X.

Q: What about the Potentiation [16, 18] of the same molecule?
A: Its Potentiation is 3.1 X.

Q: With `CN(C)c1c(Cl)cc(Cc2cnc(N)nc2N)cc1Cl` [VIII, 2,4-Diamino-5-(3,5-dichloro-4-dimethylaminobenzyl)pyrimidine] as the molecule, how does the MIC [1] read?
A: The MIC was 6.2 µg/mL (≈ 19.9 µM).

Q: And the MIC [2]?
A: The MIC was 1.56 µg/mL (≈ 5 µM).

Q: What about the MIC [3] of the same molecule?
A: The MIC was 3.1 µg/mL (≈ 9.93 µM).

Q: What about the MIC [4] of the same molecule?
A: The MIC was 3.1 µg/mL (≈ 9.93 µM).

Q: What about the MIC [5] of the same molecule?
A: Its MIC is 100 µg/mL (≈ 320 µM).

Q: And the MIC [6]?
A: The MIC was 6.2 µg/mL (≈ 19.9 µM).

Q: And the MIC [7]?
A: Its MIC is 6.2 µg/mL (≈ 19.9 µM).

Q: What about the MIC [8] of the same molecule?
A: Its MIC is 6.2 µg/mL (≈ 19.9 µM).

Q: And the MIC [9]?
A: Its MIC is 25 µg/mL (≈ 80.1 µM).

Q: What about the MIC [10] of the same molecule?
A: The MIC was 6.2 µg/mL (≈ 19.9 µM).

Q: What about the MIC [11] of the same molecule?
A: Its MIC is 3.1 µg/mL (≈ 9.93 µM).

Q: And the “CD50, Cmpd. part of the Sulfa/Cmpd. combination” value [12]?
A: The value was 80 Mg./Kg.

Q: What about the “CD50, Cmpd. part of the Sulfa/Cmpd. combination” value [13] of the same molecule?
A: Its value is 45 Mg./Kg.

Q: And the “CD50, Cmpd. part of the Sulfa/Cmpd. combination” value [14]?
A: The value was 2 Mg./Kg.

Q: And the “CD50, Cmpd. part of the Sulfa/Cmpd. combination” value [15]?
A: Its value is 3 Mg./Kg.

Q: And the Potentiation [16, 17]?
A: The Potentiation was 8.0 X.

Q: And the Potentiation [16, 18]?
A: Its Potentiation is 1.6 X.

Q: How did the MIC [1] turn out when `COc1cc(Cc2cnc(N)nc2N)cc(OC)c1OC` [Trimethoprim, reference compound] was run?
A: Its MIC is 0.2 µg/mL (≈ 0.689 µM).

Q: What about the MIC [5] of the same molecule?
A: The MIC was 3000 µg/mL (≈ 10300 µM).

Q: And the “increase in resistance caused by the resistant (R) factor” value ([5]; R factor in E. Coli 114 versus sensitive)?
A: The value was “several thousand-fold”.
